Reference: US11780849B2, “Imino sulfanone inhibitors of ENPP1” (Volastra Therapeutics, Inc., priority 2020, dated 2023)
Where two headings read alike, the source gives them in different places.

Experiments:
[1] = biological target: ENPP1 on MDA-MB-231 cells (Homo sapiens (Human), UniProt P22413); test: Assay 3: inhibition of ENPP1 hydrolysis of AMP p-nitrophenyl ester on MDA-MB-231 cells
Experimental: Hydrolysis of the p-nitrophenyl ester of AMP (pNP-AMP), an isostere of ATP, is selectively catalyzed by ENPP1 in the supernatant of MDA-MB-231 cell cultures. Inhibition of the hydrolysis of pNP-AMP by MDA-MB-231 at pH 7.4 and 37° C., is a good model of physiologically relevant activity of membrane-bound ENPP1 at disease-relevant expression levels.
MDA-MB-231 cells were harvested using TypLE Express Enzyme digestion and suspended in 100 μL of Leibovitz's L-15 Medium, 20% FBS, seeding the cells in a 96-well assay plate with 4.5×10^4 cells/well. Cells were incubated at 37° C. with 1% CO2 for 24 h. In a separate dilution plate, 2× of top dose of compound was prepared in phenol-red free 1640 medium without FBS and then 1:3 serial diluted in the same medium. The cell culture medium of L15 medium was aspirated carefully and cells were washed with PBS once, and 50 μL per well of test compound or DMSO blank were added to the assay plate. Substrate mix (50 μL; 0.5 mM pNP-AMP in phenol-red free 1640 media without FBS) was added for a pNP-AMP final concentration of 0.25 mM. The system was incubated at 37° C. for 3 h.

[2] = biological target: T1, ENPP-1 ECD (Homo sapiens (Human), UniProt P22413); test: Assay 2: inhibition of ENPP1 hydrolysis of 2′,3′-cGAMP (AMP-Glo, […] enzyme)
Experimental: Assay 2: Compared to the conditions in Assay 1, this assay has a larger dynamic range and ensures the system is under steady-state conditions by reducing the enzyme concentration in the assay.
Test compounds were plated in a 3× dilution scheme in a 384 well plate. […] AMP Detection solution (10 μL) was added to each well, the plate centrifuged and incubated for 60 min.

[3] = biological target: T1, ENPP-1 ECD; test: Assay 1: inhibition of ENPP1 hydrolysis of 2′,3′-cGAMP (AMP-Glo, […] enzyme)
Experimental: Assay 1: Test compounds were plated in a 3× dilution scheme in a 384 well plate. […] AMP Detection solution (100 μL) was added to each well, the plate centrifuged and incubated for 60 min.

[4] = read-out: Assay 3 (KI, app), apparent KI from IC50 via Cheng/Prusoff, pNP-AMP […], MDA-MB-231 cells, pH 7.4, 37° C., 3 h, unit inferred
[5] = read-out: Assay 2 (KI), ENPP1 hydrolysis of 2′,3′-cGAMP, AMP-Glo, […] ENPP-1, 24 μM cGAMP
[6] = read-out: Assay 2 (KI), inhibition of ENPP1 hydrolysis of 2′,3′-cGAMP, no unit in Table 18 (Table 17 legend for this assay uses nM)
[7] = Assay 1 (IC50), ENPP1 hydrolysis of 2′,3′-cGAMP, AMP-Glo
[8] = Assay 1 (IC50), inhibition of ENPP1 hydrolysis of 2′,3′-cGAMP, no unit in Table 18 (Table 17 legend for this assay uses nM)
[9] = Assay 2 (KI), ENPP1 hydrolysis of 2′,3′-cGAMP, AMP-Glo, […] ENPP-1, 24 μM cGAMP
[10] = Assay 2 (KI), inhibition of ENPP1 hydrolysis of 2′,3′-cGAMP, no unit in Table 18 (Table 17 legend for this assay uses nM)
[11] = read-out: Assay 1 (IC50), ENPP1 hydrolysis of 2′,3′-cGAMP, AMP-Glo
[12] = read-out: Assay 1 (IC50), inhibition of ENPP1 hydrolysis of 2′,3′-cGAMP, no unit in Table 18 (Table 17 legend for this assay uses nM)

T1 sequence (P22413 98-925): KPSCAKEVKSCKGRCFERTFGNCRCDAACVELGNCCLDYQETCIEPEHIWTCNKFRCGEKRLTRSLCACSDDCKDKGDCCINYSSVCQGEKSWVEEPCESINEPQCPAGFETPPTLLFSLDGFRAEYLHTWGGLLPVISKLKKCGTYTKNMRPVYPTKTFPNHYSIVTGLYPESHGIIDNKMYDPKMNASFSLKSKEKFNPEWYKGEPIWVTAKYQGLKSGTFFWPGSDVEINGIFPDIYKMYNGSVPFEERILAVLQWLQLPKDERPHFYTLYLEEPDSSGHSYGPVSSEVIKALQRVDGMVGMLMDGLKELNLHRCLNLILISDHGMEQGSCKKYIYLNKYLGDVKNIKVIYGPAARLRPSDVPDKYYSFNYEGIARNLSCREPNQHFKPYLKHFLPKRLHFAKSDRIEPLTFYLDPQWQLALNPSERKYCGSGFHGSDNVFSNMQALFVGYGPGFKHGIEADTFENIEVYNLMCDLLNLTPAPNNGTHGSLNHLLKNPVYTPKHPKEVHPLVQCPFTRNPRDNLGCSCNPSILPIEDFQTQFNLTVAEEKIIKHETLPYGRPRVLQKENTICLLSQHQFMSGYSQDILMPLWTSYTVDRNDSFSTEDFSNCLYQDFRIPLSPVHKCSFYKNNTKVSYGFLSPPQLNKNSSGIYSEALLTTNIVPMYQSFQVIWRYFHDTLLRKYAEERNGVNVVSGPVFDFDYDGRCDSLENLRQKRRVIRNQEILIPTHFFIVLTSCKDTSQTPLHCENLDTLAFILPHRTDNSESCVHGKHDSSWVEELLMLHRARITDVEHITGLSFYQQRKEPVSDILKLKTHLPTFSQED
ENPP1 on MDA-MB-231 cells, sequence (P22413 whole entry, the tested form may be a part): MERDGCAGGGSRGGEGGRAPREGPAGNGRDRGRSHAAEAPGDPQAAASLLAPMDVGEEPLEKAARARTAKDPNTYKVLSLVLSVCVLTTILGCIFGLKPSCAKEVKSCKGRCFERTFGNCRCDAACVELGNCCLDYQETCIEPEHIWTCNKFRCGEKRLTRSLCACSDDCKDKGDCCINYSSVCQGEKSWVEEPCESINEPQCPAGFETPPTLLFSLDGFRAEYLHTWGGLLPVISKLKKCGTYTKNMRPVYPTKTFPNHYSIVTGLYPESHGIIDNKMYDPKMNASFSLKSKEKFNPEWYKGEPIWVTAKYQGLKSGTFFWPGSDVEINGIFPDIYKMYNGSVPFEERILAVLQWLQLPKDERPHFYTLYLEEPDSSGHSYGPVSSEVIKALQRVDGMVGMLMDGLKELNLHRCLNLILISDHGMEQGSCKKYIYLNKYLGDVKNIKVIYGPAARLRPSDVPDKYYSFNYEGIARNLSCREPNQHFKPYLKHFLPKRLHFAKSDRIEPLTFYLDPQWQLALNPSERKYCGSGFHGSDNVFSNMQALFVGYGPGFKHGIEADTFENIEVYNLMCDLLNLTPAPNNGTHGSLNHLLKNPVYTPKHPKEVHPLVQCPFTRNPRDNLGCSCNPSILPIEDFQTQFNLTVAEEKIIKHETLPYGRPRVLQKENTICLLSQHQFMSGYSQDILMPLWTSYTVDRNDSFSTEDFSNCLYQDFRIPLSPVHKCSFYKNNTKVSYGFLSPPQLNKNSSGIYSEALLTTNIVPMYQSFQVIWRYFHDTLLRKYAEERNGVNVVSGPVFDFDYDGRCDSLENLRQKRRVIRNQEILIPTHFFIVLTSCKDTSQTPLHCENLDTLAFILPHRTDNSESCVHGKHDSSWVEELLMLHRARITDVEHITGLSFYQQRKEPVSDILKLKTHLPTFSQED

| Structure (SMILES) | Ki [1, 4] [nM] | Ki [2, 5] [nM] | Ki [2, 6] [nM] | IC50 [3, 7] [nM] | IC50 [3, 8] [nM] | Ki [2, 9] [nM] | Ki [2, 10] [nM] | IC50 [3, 11] [nM] | IC50 [3, 12] [nM] | Ki [1] [nM] |
| --- | --- | --- | --- | --- | --- | --- | --- | --- | --- | --- |
| COc1cc2ncnc(-c3ccc4c(c3)CN([S@](C)(=N)=O)CC4)c2cc1OC [Compound 37b] | 21 | < 3 | 0.28 |  |  |  |  |  |  |  |
| COc1ccc2c(NCc3ccc(S(C)(=N)=O)cc3)ccnc2c1 (centres unmarked) [Compound 74, imino(4-(((7-methoxyquinolin-4-yl)amino)methyl)phenyl)(methyl)-λ^6-sulfanone] |  |  |  | 10 to 1000 | 11 | < 3 | 1.7 |  |  |  |
| COc1ccc2c(Oc3ccc(CS(C)(=N)=O)cc3)ccnc2c1 (centres unmarked) [Compound 79, imino(4-((7-methoxyquinolin-4-yl)oxy)benzyl)(methyl)-λ^6-sulfanone] |  |  |  | 10 to 1000 | 740 | 3 to 300 | 220 |  |  |  |
| COc1cccc2c(Oc3ccc(S(C)(=N)=O)cc3)ncnc12 (centres unmarked) [Compound 84, imino(4-((8-methoxyquinazolin-4-yl)oxy)phenyl)(methyl)-λ^6-sulfanone] |  |  |  |  | 1300 | 3 to 300 | 210 | > 1000 |  |  |
| COc1ccc2c(-c3ccc(CCS(C)(=N)=O)cc3)ccnc2c1 (centres unmarked) [Compound 98, imino(4-(7-methoxyquinolin-4-yl)phenethyl)(methyl)-λ^6-sulfanone] |  |  |  | 10 to 1000 | 140 | 3 to 300 | 25 |  |  |  |
| COc1cc2nccc(Oc3ccc(S(C)(=N)=O)c(F)c3)c2cc1OC (centres unmarked) [Compound 115, {4-[(6,7-dimethoxyquinolin-4-yl)oxy]-2-fluorophenyl}(imino)methyl-λ^6-sulfanone] |  |  |  | 10 to 1000 | 85 | 3 to 300 | 13 |  |  |  |
| COc1cc2nccc(Oc3ccc(S(C)(=N)=O)cc3F)c2cc1OC (centres unmarked) [Compound 116, {4-[(6,7-dimethoxyquinolin-4-yl)oxy]-3-fluorophenyl}(imino)methyl-λ^6-sulfanone] |  |  |  | 10 to 1000 | 220 | 3 to 300 | 25 |  |  |  |
| COc1ccc2c(Oc3cccc(S(C)(=N)=O)c3)ccnc2c1 (centres unmarked) [Compound 117, imino({3-[(7-methoxyquinolin-4-yl)oxy]phenyl})methyl-λ^6-sulfanone] |  |  |  | 10 to 1000 | 180 | 3 to 300 | 94 |  |  |  |
| COc1cccc2c(Oc3ccc(S(C)(=N)=O)cc3)ccnc12 (centres unmarked) [Compound 118, imino({4-[(8-methoxyquinolin-4-yl)oxy]phenyl})methyl-λ^6-sulfanone] |  |  |  | 10 to 1000 | 160 | 3 to 300 | 36 |  |  |  |
| COc1ccc2c(Oc3ccc(S(C)(=N)=O)cc3)cnnc2c1 (centres unmarked) [Compound 119, imino({4-[(7-methoxycinnolin-4-yl)oxy]phenyl})methyl-λ^6-sulfanone] |  |  |  | 10 to 1000 | 66 | 3 to 300 | 17 |  |  |  |
| COc1ccc2c(Oc3ccc(S(C)(=N)=O)cc3)c(C#N)cnc2c1 (centres unmarked) [Compound 121, 4-{4-[imino(methyl)oxo-λ^6-sulfanyl]phenoxy}-7-methoxyquinoline-3-carbonitrile] |  |  |  |  |  | 3 to 300 | 4.2 |  |  | 250 |
| CS(=N)(=O)c1ccc(Oc2ccnc3ccccc23)cc1 (centres unmarked) [Compound 125, imino(methyl)[4-(quinolin-4-yloxy)phenyl]-λ^6-sulfanone] |  |  |  | 10 to 1000 | 340 |  | 110 |  |  |  |
| COc1cc2nccc(Oc3ccc(S(C)(=N)=O)cc3)c2cc1Cl (centres unmarked) [Compound 126, {4-[(6-chloro-7-methoxyquinolin-4-yl)oxy]phenyl}(imino)methyl-λ^6-sulfanone] |  |  |  | 10 to 1000 | 39 | 3 to 300 | 11 |  |  |  |
| COc1cc2nccc(Oc3ccc(S(C)(=N)=O)nc3)c2cc1OC (centres unmarked) [Compound 129, {5-[(6,7-dimethoxyquinolin-4-yl)oxy]pyridin-2-yl}(imino)methyl-λ^6-sulfanone] |  |  |  | 10 to 1000 | 260 | 3 to 300 | 39 |  |  |  |
| COc1ccc2c(OCc3ccc(S(C)(=N)=O)cc3Br)ccnc2c1 (centres unmarked) [Compound 137, (3-bromo-4-{[(7-methoxyquinolin-4-yl)oxy]methyl}phenyl)(imino)methyl-λ^6-sulfanone] |  |  |  | 10 to 1000 | 200 | 3 to 300 | 38 |  |  |  |
| COc1ccc2c(N3CCC(CCS(C)(=N)=O)CC3)ncnc2c1 (centres unmarked) [Compound 139, imino({2-[1-(7-methoxyquinazolin-4-yl)piperidin-4-yl]ethyl})methyl-λ^6-sulfanone] |  |  |  | 10 to 1000 | 15 | < 3 | 2.4 |  |  |  |
| COc1cccc2c(N3CCC(CCS(C)(=N)=O)CC3)ccnc12 (centres unmarked) [Compound 140, imino({2-[1-(8-methoxyquinolin-4-yl)piperidin-4-yl]ethyl})methyl-λ^6-sulfanone] |  |  |  | 10 to 1000 | 880 | 3 to 300 | 180 |  |  |  |
| CS(=N)(=O)CCC1CCN(c2ccnc3ccccc23)CC1 (centres unmarked) [Compound 149, imino(methyl){2-[1-(quinolin-4-yl)piperidin-4-yl]ethyl}-λ^6-sulfanone] |  |  |  |  | 1400 | > 300 | 410 | > 1000 |  |  |
| COc1cc2ncnc(-c3ccc(CCS(C)(=N)=O)cc3)c2cc1OC (centres unmarked) [Compound 153, {2-[4-(6,7-dimethoxyquinazolin-4-yl)phenyl]ethyl}(imino)methyl-λ^6-sulfanone] |  |  |  | 10 to 1000 | 54 | 3 to 300 | 12 |  |  |  |
| COc1ccc2c(-c3ccc(CNS(C)(=N)=O)cc3)ccnc2c1 (centres unmarked) [Compound 162, N-{[4-(7-methoxyquinolin-4-yl)phenyl]methyl}methanesulfonoimidamide] |  |  |  | 10 to 1000 | 40 | 3 to 300 | 6.9 |  |  |  |
| COc1ccc2c(N3CCC(CCS(C)(=N)=O)CC3)ncnc2c1OC (centres unmarked) [Compound 165, (2-(1-(7,8-dimethoxyquinazolin-4-yl)piperidin-4-yl)ethyl)(imino)(methyl)-l6-sulfanone] |  |  |  |  | > 30000 | > 300 | 1400 | > 1000 |  |  |

Further lines, results first:

| Ki [1, 4] [nM] | Ki [2, 5] [nM] | Ki [2, 6] [nM] | IC50 [3, 7] [nM] | IC50 [3, 8] [nM] | Ki [2, 9] [nM] | Ki [2, 10] [nM] | IC50 [3, 11] [nM] | IC50 [3, 12] [nM] | Ki [1] [nM] | Structure (SMILES) |
| --- | --- | --- | --- | --- | --- | --- | --- | --- | --- | --- |
|  | 3 to 300 | 98 |  |  |  |  | > 1000 |  |  | COc1ccc2c(OCc3ccc([S@](C)(=N)=O)cc3)ccnc2c1 [Compound 75b] |
|  | 3 to 300 | 13 |  |  |  |  | 10 to 1000 | 180 |  | COc1ccc2c(Oc3ccc([S@](C)(=N)=O)cc3)ccnc2c1 [Compound 80b] |
| 46 | < 3 | 0.78 |  |  |  |  |  |  |  | COc1cc2ncnc(N3CCC(CN[S@@](C)(=N)=O)CC3)c2cc1OC [Compound 94a] |
|  | > 300 | 450 |  |  |  |  | > 1000 | 1600 |  | CC[S@@](=N)(=O)c1ccc(Oc2ccnc3cc(OC)ccc23)cc1 [Compound 103a] |
|  | 3 to 300 | > 25 |  |  |  |  | 10 to 1000 | 77 |  | COc1cc2nccc(Oc3ccc([S@@](C)(=N)=O)cc3)c2cc1F [Compound 114b] |
|  | 3 to 300 | 4.8 |  |  |  |  | 10 to 1000 | 37 |  | COc1cc2nccc(Oc3ccc([S@](=N)(=O)C4CC4)cc3)c2cc1F [Compound 120b] |
|  | 3 to 300 | 49 |  |  |  |  | > 1000 | > 100 |  | COc1ccc2c(OCc3cccc([S@](C)(=N)=O)c3)ccnc2c1 [Compound 133b] |
